Blank lines part the entries; values can stand above or below the compound they belong to.
Organism: Rattus norvegicus
Assay: Inhibition of rat recombinant geranylgeranyltransferase type I expressed in Escherichia coli assessed as residual enzyme activity for geranylgeranylation of K-Ras4B at 50 uM incubated for 30 mins in presence of [3H]GGPP by scintillation counting assay relative to control

Structure (SMILES): Cc1ccc([C@@H]2C[C@@H](SC3CCCC3)[C@H](C(=O)O)CN2S(=O)(=O)c2ccc(C)cc2)cc1
Activity: 87.8%

Structure (SMILES): Cc1ccc(S(=O)(=O)N2[C@@H](c3ccc(C(C)(C)C)cc3)C(C(=O)O)=CC[C@H]2c2ccc(C#N)cc2)cc1
Activity: 87.7%

Structure (SMILES): Cc1ccccc1S(=O)(=O)N1[C@@H](c2ccc(Cl)cc2)C(C(=O)O)=CC[C@H]1c1ccc(Cl)cc1
Activity: 54.4%

Structure (SMILES): CCCS[C@@H]1C[C@@H](c2ccc(OC)cc2)N(S(=O)(=O)c2ccccc2)C[C@H]1C(=O)O
Activity: 89.5%

Structure (SMILES): CCCS[C@@H]1C[C@@H](c2ccc(C)cc2)N(S(=O)(=O)c2ccc(C)cc2)C[C@H]1C(=O)O
Activity: 69.8%

Structure (SMILES): Cc1ccc(S[C@@H]2C[C@@H](c3ccc(C)cc3)N(S(=O)(=O)c3ccccc3)C[C@H]2C(=O)O)cc1
Activity: 91.3%

Structure (SMILES): Cc1ccc(S(=O)(=O)N2[C@@H](c3cccc(Cl)c3)C(C(=O)O)=CC[C@H]2c2ccc(C#N)cc2)cc1
Activity: 70.9%

Structure (SMILES): CCCCS[C@@H]1C[C@@H](c2cccc(OC)c2)N(S(=O)(=O)c2ccc(C)cc2)C[C@H]1C(=O)O
Activity: 83.9%

Structure (SMILES): CCS[C@@H]1C[C@@H](c2cccc(Br)c2)N(S(=O)(=O)c2ccc(C)cc2)C[C@H]1C(=O)O
Activity: 82.7%

Structure (SMILES): CCS[C@@H]1C[C@@H](c2ccc(C)cc2)N(S(=O)(=O)c2ccc(C)cc2)C[C@H]1C(=O)O
Activity: 90.1%

Structure (SMILES): CCCCCCS[C@@H]1C[C@@H](c2ccccc2F)N(S(=O)(=O)c2ccc(C)cc2)C[C@H]1C(=O)O
Activity: 75.3%

Structure (SMILES): Cc1ccc([C@H]2C(C(=O)O)=CC[C@@H](c3ccc(C)cc3)N2S(=O)(=O)c2ccccc2C)cc1
Activity: 88.3%

Structure (SMILES): Cc1ccc([C@@H]2C[C@@H](Sc3ccccc3)[C@H](C(=O)O)CN2S(=O)(=O)c2ccc(Cl)cc2)cc1
Activity: 87.1%

Structure (SMILES): COc1ccc([C@@H]2C[C@@H](SCc3ccc(Cl)cc3)[C@H](C(=O)O)CN2S(=O)(=O)c2ccc(C)cc2)cc1OC
Activity: 69.1%

Structure (SMILES): CCOc1ccc([C@@H]2CC=C(C(=O)O)[C@H](c3ccc(C(C)(C)C)cc3)N2S(=O)(=O)c2ccc(C)cc2)cc1
Activity: 58.7%

Structure (SMILES): COc1ccc(S[C@@H]2C[C@@H](c3ccc(C)cc3)N(S(=O)(=O)c3ccc(C)cc3)C[C@H]2C(=O)O)cc1
Activity: 78.4%

Structure (SMILES): Cc1ccc(S(=O)(=O)N2[C@@H](c3cccc(F)c3)C(C(=O)O)=CC[C@H]2c2ccc(C#N)cc2)cc1
Activity: 88.3%

Structure (SMILES): C=CCS[C@@H]1C[C@@H](c2ccccc2)N(S(=O)(=O)c2ccc(C)cc2)C[C@H]1C(=O)O
Activity: 98.9%

Structure (SMILES): CS(=O)(=O)N1[C@@H](c2ccc(Br)cc2)C(C(=O)O)=CC[C@H]1c1ccc(Cl)cc1
Activity: 53.6%

Structure (SMILES): CCCS[C@@H]1C[C@@H](c2ccc(CC)cc2)N(S(=O)(=O)c2ccc(C)cc2)C[C@H]1C(=O)O
Activity: 69%

Structure (SMILES): Cc1cccc([C@H]2C(C(=O)O)=CC[C@@H](c3ccc(Cl)cc3)N2S(=O)(=O)c2ccc(Cl)cc2)c1
Activity: 89.5%

Structure (SMILES): CCCCCCS[C@@H]1C[C@@H](c2ccc(C)cc2)N(S(C)(=O)=O)C[C@H]1C(=O)O
Activity: 83.1%

Structure (SMILES): CCCCS[C@@H]1C[C@@H](c2ccc(C)cc2)N(S(C)(=O)=O)C[C@H]1C(=O)O
Activity: 104%

Structure (SMILES): CC(=O)C1=CC[C@@H](c2ccc(C(C)C)cc2)N(S(=O)(=O)c2ccc(C)cc2)C1
Activity: 105%

Structure (SMILES): Cc1ccc(S(=O)(=O)N2[C@@H](c3ccc(F)cc3)C(C(=O)O)=CC[C@H]2c2ccccc2)cc1
Activity: 68.1%

Structure (SMILES): COc1ccc(S[C@@H]2C[C@@H](c3ccccc3F)N(S(=O)(=O)c3ccc(C)cc3)C[C@H]2C(=O)O)cc1
Activity: 100%

Structure (SMILES): Cc1ccc(S(=O)(=O)N2C[C@@H](C(=O)O)[C@H](SCc3ccc(C(C)(C)C)cc3)C[C@H]2c2ccc3c(c2)OCO3)cc1
Activity: 59.3%

Structure (SMILES): Cc1ccc(S[C@@H]2C[C@@H](c3ccc4c(c3)OCO4)N(S(=O)(=O)c3ccc(C)cc3)C[C@H]2C(=O)O)cc1
Activity: 77.8%

Structure (SMILES): CCc1ccc([C@@H]2CC=C(C(=O)O)[C@H](c3ccc(C(C)(C)C)cc3)N2S(=O)(=O)c2ccc(C)cc2)cc1
Activity: 79.7%

Structure (SMILES): Cc1ccc([C@@H]2CC=C(C(=O)O)[C@H](c3ccc(Br)cc3)N2S(=O)(=O)c2ccc(C)cc2)cc1
Activity: 68.1%

Structure (SMILES): CCCCCS[C@@H]1C[C@@H](c2cccc(OC)c2)N(S(=O)(=O)c2ccc(C)cc2)C[C@H]1C(=O)O
Activity: 105%

Structure (SMILES): COc1ccc([C@@H]2CC=C(C(=O)O)[C@H](c3cccc(Cl)c3)N2S(=O)(=O)c2ccc(Cl)cc2)cc1
Activity: 53.2%

Structure (SMILES): Cc1ccc([C@@H]2CC=C(C(=O)O)[C@H](c3cccc(Br)c3)N2S(=O)(=O)c2ccccc2C)cc1
Activity: 50%

Structure (SMILES): Cc1ccc([C@@H]2CC=C(C(=O)O)[C@H](c3ccc(Br)cc3)N2S(=O)(=O)c2ccccc2C)cc1
Activity: 82%

Structure (SMILES): Cc1ccccc1S(=O)(=O)N1[C@@H](c2ccc(Br)cc2)C(C(=O)O)=CC[C@H]1c1ccc(Cl)cc1
Activity: 86.6%

Structure (SMILES): Cc1ccc([C@@H]2C[C@@H](SCc3ccccc3)[C@H](C(=O)O)CN2S(=O)(=O)c2ccccc2)cc1
Activity: 47.4%

Structure (SMILES): Cc1ccc([C@@H]2CC=C(C(=O)O)[C@H](c3ccc(F)cc3)N2S(=O)(=O)c2ccc(Cl)cc2)cc1
Activity: 60%

Second part, the compound after the results:

Activity: 72.2%
Structure (SMILES): CCCCCCS[C@@H]1C[C@@H](c2ccc(Cl)cc2)N(S(=O)(=O)c2ccc(C)cc2)C[C@H]1C(=O)O

Activity: 54.8%
Structure (SMILES): Cc1ccc([C@H]2C(C(=O)O)=CC[C@@H](c3ccc(F)cc3)N2S(=O)(=O)c2ccc(C)cc2)cc1

Activity: 56.1%
Structure (SMILES): COc1ccc([C@@H]2CC=C(C(=O)O)[C@H](c3cccc(Cl)c3)N2S(=O)(=O)c2ccccc2)cc1

Activity: 100%
Structure (SMILES): CCCS[C@@H]1C[C@@H](c2ccc(C)cc2)N(S(=O)(=O)c2ccccc2)C[C@H]1C(=O)O

Activity: 86.3%
Structure (SMILES): CCCCS[C@@H]1C[C@@H](c2ccccc2F)N(S(=O)(=O)c2ccc(C)cc2)C[C@H]1C(=O)O

Activity: 61.4%
Structure (SMILES): Cc1ccc(S(=O)(=O)N2C[C@@H](C(=O)O)[C@H](SCc3ccc(Cl)cc3)C[C@H]2c2ccccc2F)cc1

Activity: 92.4%
Structure (SMILES): Cc1ccc(S[C@@H]2C[C@@H](c3ccc(C)cc3)N(S(=O)(=O)c3ccc(Cl)cc3)C[C@H]2C(=O)O)cc1

Activity: 57.9%
Structure (SMILES): CCCCCS[C@@H]1C[C@@H](c2ccc(Cl)cc2)N(S(=O)(=O)c2ccccc2C)C[C@H]1C(=O)O

Activity: 61.4%
Structure (SMILES): CCCCCS[C@@H]1C[C@@H](c2ccccc2F)N(S(=O)(=O)c2ccc(C)cc2)C[C@H]1C(=O)O

Activity: 63.2%
Structure (SMILES): CCS[C@@H]1C[C@@H](c2ccc(Cl)cc2)N(S(=O)(=O)c2ccccc2C)C[C@H]1C(=O)O

Activity: 84.5%
Structure (SMILES): Cc1ccc([C@@H]2CC=C(C(=O)O)[C@H](c3ccc(Br)cc3)N2S(C)(=O)=O)cc1

Activity: 81%
Structure (SMILES): CCCCCS[C@@H]1C[C@@H](c2ccc(C)cc2)N(S(=O)(=O)c2ccccc2)C[C@H]1C(=O)O

Activity: 96.7%
Structure (SMILES): COc1ccc([C@@H]2C[C@@H](SCCC(C)C)[C@H](C(=O)O)CN2S(=O)(=O)c2ccccc2)cc1

Activity: 100%
Structure (SMILES): COc1ccc(S[C@@H]2C[C@@H](c3ccc4c(c3)OCO4)N(S(=O)(=O)c3ccc(C)cc3)C[C@H]2C(=O)O)cc1

Activity: 75%
Structure (SMILES): CCCS[C@@H]1C[C@@H](c2cc(OC)c(OC)c(OC)c2)N(S(=O)(=O)c2ccc(C)cc2)C[C@H]1C(=O)O

Activity: 66.1%
Structure (SMILES): COc1ccc([C@@H]2CC=C(C(=O)O)[C@H](c3cccc(Cl)c3)N2S(=O)(=O)c2ccccc2C)cc1

Activity: 90.9%
Structure (SMILES): Cc1ccc(S(=O)(=O)N2C[C@@H](C(=O)O)[C@H](Sc3ccc(Cl)cc3)C[C@H]2c2ccc3c(c2)OCO3)cc1

Activity: 92.9%
Structure (SMILES): Cc1ccc([C@@H]2C[C@@H](SCCC(C)C)[C@H](C(=O)O)CN2S(=O)(=O)c2ccc(C)cc2)cc1

Activity: 57.4%
Structure (SMILES): Cc1ccc(S(=O)(=O)N2C[C@@H](C(=O)O)[C@H](Sc3ccccc3)C[C@H]2c2ccc3c(c2)OCO3)cc1

Source: ChEMBL document CHEMBL4421722, “Inhibitors of protein prenyltransferases” (2013)
